Source: US10647677B2, “Analogues of hydroxychloroquine (HCQ) without retinal toxicity” (Inoviem Scientific, priority 2015, dated 2020)
Like-named read-outs stand apart in the source and are kept apart here.

What was measured:
αB-crystalline (αB-C) = molecular target: T1, αB-crystalline (αB-C) (Homo sapiens, UniProt P02511); test: Surface plasmon resonance (Biacore 3000) affinity on αB-crystalline; format: binding; conditions: SPR at 25° C.; for Kd: read-out: Kd (M) on crystallin
T1 construct: purchased
T1 sequence (P02511 1-175): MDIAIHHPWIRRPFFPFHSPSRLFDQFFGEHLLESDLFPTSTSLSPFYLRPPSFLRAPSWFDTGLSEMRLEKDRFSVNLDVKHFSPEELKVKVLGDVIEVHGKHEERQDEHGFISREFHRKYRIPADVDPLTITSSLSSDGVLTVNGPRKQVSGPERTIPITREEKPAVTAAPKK
Procedure: (§1) Using the surface plasmon resonance technology (Biacore 3000), the interaction constants between HCQ analogues (HCQa) and myeloperoxidase (MPO) targets and αB-crystalline (αB-C) were measured at 25° C. according to 12 different series of experiments. First, HCQ analogues at five different concentrations (10^−6 to 10^−8 M) were injected at a rate of 10^−6 L/min for 250 s on the MPO and αB-C targets as well as on the ERK1 and ERK2 controls, followed by a dissociation phase of 150 s.
(§2) The kinetic parameters were measured using the BIAevaluation 4.1 software. The set of resonance unit values obtained with the controls were subtracted from those obtained with MPO and αB-C to compensate for non-specific bonds.
(§3) The differences in Kd values for the myeloperoxidase (MPO) and αB-crystalline (αB-C) enzymes in Tables 1 and 2 are due to the variability of commercial batches. Nevertheless, the difference between the Kd of the compounds HCQ and CB137 remains identical according to these two tests.
(§4) Analysis of the compounds in the form of sulphate salts according to the method described above: […]

myeloperoxidase (MPO) = molecular target: T2, myeloperoxidase (MPO) (Homo sapiens, UniProt P05164); test: Surface plasmon resonance (Biacore 3000) affinity on MPO; format: binding; conditions: SPR at 25° C.
T2 construct: purchased
T2 sequence (P05164 49-745): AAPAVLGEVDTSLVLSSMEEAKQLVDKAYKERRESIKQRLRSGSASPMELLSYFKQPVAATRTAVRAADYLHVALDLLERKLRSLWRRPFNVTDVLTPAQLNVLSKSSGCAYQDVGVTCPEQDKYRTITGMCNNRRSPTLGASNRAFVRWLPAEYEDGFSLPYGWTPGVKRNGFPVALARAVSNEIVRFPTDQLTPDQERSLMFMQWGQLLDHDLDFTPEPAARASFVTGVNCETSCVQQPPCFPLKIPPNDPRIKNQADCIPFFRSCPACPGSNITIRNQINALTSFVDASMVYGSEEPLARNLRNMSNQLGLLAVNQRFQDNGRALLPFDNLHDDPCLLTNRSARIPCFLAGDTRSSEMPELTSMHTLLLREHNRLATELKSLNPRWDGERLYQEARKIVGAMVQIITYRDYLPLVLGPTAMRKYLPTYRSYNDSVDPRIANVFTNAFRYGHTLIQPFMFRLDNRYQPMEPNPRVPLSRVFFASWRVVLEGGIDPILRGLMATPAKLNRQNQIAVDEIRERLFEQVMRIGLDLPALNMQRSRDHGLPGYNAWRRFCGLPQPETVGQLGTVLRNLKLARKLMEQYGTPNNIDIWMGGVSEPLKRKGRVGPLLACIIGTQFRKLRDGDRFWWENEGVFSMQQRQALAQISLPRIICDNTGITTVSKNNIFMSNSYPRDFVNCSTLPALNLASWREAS
Procedure: as §1, §2, §3, §4

[1] = Table 2, compounds in the form of sulphate salts

Row | SMILES | Kd (αB-crystalline (αB-C); Table 1) | Kd (myeloperoxidase (MPO); Table 1) | Kd (M) on crystallin (αB-crystalline (αB-C); Table 1) | Kd (αB-crystalline (αB-C); [1]) | Kd (myeloperoxidase (MPO); [1])
1 | CCN(CCO)CCCC(C)Nc1c(C(=O)C2CC2)cnc2cc(Cl)ccc12 (stereo not drawn) [CB103] | 6.6e-07 M | 36 nM |  |  | 
2 | C#CCOCc1cnc2cc(Cl)ccc2c1NC(C)CCCN(CC)CCO (stereo not drawn) [NT69] |  |  | Kd not measurable because below the detection threshold |  | 
3 | CCN(CCO)CCC[C@@H](C)Nc1ccnc2cc(Cl)cc(Cl)c12 [CB321 R-enantiomer] |  |  |  | 1e-05 M | 7000 nM
4 | CCN(CCO)CCCC(C)Nc1c(Cl)cnc2cc(Cl)ccc12 (stereo not drawn) [CB072] | 1.6e-07 M | 1.1 nM |  |  | 
5 | CCN(CCO)CCCC(C)Nc1c(C#N)cnc2cc(Cl)ccc12 (stereo not drawn) [CB029] | 3.5e-08 M | 71 nM |  |  | 
6 | CCN(CCO)CCCC(C)Nc1c(C(F)(F)F)cnc2cc(Cl)ccc12 (stereo not drawn) [CB108] | 8.1e-07 M | 14 nM |  |  | 
7 | CCN(CCO)CCCC(C)Nc1ccnc2cc(Cl)ccc12 (single isomer, unassigned) [CB133] | 2.19e-09 M | 711 nM |  |  | 
8 | CCN(CCO)CCCC(C)Nc1ccnc2c(Cl)c(Cl)ccc12 (stereo not drawn) [CB317] |  |  |  |  | 9000 nM
9 | CCOC(=O)c1cnc2cc(Cl)ccc2c1NC(C)CCCN(CC)CCO (stereo not drawn) [NT36F9] |  | 7.5 nM | Kd not measurable because below the detection threshold |  | 
10 | CCN(CCO)CCCC(C)Nc1c(C2CC2)cnc2cc(Cl)ccc12 (stereo not drawn) [CB341] |  |  |  | 2e-05 M | 5000 nM
11 | CCN(CCO)CCC[C@@H](C)Nc1c(Cl)cnc2cc(Cl)ccc12 [CB323 R-enantioer] |  |  |  | 0.0002 M | 90 nM
12 | CCN(CCO)CCCC(C)Nc1ccnc2cc(Cl)cc(Cl)c12 (stereo not drawn) [CB300] |  |  |  | 0.0002 M | 4000 nM
13 | CCN(CCO)CCCC(C)Nc1c(C(=O)C(F)(F)F)cnc2cc(Cl)ccc12 (stereo not drawn) [CB114] | 2.2e-05 M | 60 nM |  |  | 
